Data on 33 molecules can be found in a polymer gas permeability compilation.

Molecule `*Oc1ccc(-c2c(-c3ccc(Br)cc3)c(-c3ccc(Br)cc3)c(-c3ccc4c(c3)Oc3c(C#N)c(*)c(*)c(C#N)c3O4)c(-c3ccc(Br)cc3)c2-c2ccc(Br)cc2)cc1O*` (repeat unit) yielded a CH4 permeability of 102 Barrer, a CO2 permeability of 1430 Barrer, an H2 permeability of 694 Barrer and an N2 permeability of 54 Barrer. Further, the O2 permeability came to 203 Barrer.

In the case of `*Oc1c(Br)cc(C(c2cc(Br)c(OC(=O)c3cccc(C(*)=O)c3)c(Br)c2)(C(F)(F)F)C(F)(F)F)cc1Br` (repeat unit), the CH4 permeability was 0.597 Barrer, the CO2 permeability was 35.6 Barrer, the H2 permeability worked out at 65 Barrer and the N2 permeability worked out at 1.07 Barrer. The molecule also gave an O2 permeability of 6.75 Barrer.

`*c1ccc(C(c2ccc(N3C(=O)c4ccc(Oc5cc(C)c(Oc6ccc7c(c6)C(=O)N(*)C7=O)c(C)c5C)cc4C3=O)cc2)(C(F)(F)F)C(F)(F)F)cc1` (repeat unit) showed a CH4 permeability of 1.7 Barrer, a CO2 permeability of 54 Barrer, an H2 permeability of 77 Barrer and an N2 permeability of 1.9 Barrer. This molecule came in with an O2 permeability of 9.3 Barrer.

Take `*Oc1c(C)cc(*)c(C(=O)c2ccc(C)cc2)c1C` (repeat unit): the CH4 permeability turned out to be 1.49 Barrer, the CO2 permeability worked out at 21.4 Barrer, the N2 permeability was determined as 2.42 Barrer and the O2 permeability is 7.36 Barrer.

For `*c1ccc(Oc2ccc(N3C(=O)c4ccc(C(=O)c5ccc6c(c5)C(=O)N(*)C6=O)cc4C3=O)cc2)cc1` (repeat unit), the CH4 permeability is 0.0109 Barrer, the CO2 permeability was found to be 0.625 Barrer, the H2 permeability was 4.19 Barrer and the N2 permeability worked out at 0.0178 Barrer. Further, the O2 permeability is 0.18 Barrer.

With `*CC(*)c1ccc(OC)cc1` (repeat unit), the CH4 permeability stood at 0.91 Barrer, the CO2 permeability was 18.9 Barrer, the N2 permeability worked out at 0.61 Barrer and the O2 permeability turned out to be 2.6 Barrer.

Take `*c1cc(C(=O)OCCC(F)(F)C(F)(F)C(F)(F)C(F)(F)C(F)(F)C(F)(F)F)cc(N2C(=O)c3ccc(Oc4ccc5c(c4)C(=O)N(*)C5=O)cc3C2=O)c1` (repeat unit): the CH4 permeability turned out to be 0.36 Barrer, the CO2 permeability was determined as 11 Barrer, the N2 permeability turned out to be 0.56 Barrer and the O2 permeability is 2.61 Barrer.

In turn, `*Oc1ccc(S(=O)(=O)c2ccc(Oc3cccc4c(*)cccc34)cc2)cc1` (repeat unit) displayed a CH4 permeability of 0.0364 Barrer, a CO2 permeability of 1.6 Barrer, an H2 permeability of 8.1 Barrer and an N2 permeability of 0.0568 Barrer. This molecule also came in with an O2 permeability of 0.42 Barrer.

Consider `*C(C(=O)OC1CCCCC1)C(*)C(=O)OC(C)(C)C` (repeat unit), for which the H2 permeability turned out to be 72 Barrer, the N2 permeability was 5 Barrer and the O2 permeability is 17 Barrer.

In turn, `*c1ccc(Oc2ccc(Oc3ccc(Oc4ccc(N5C(=O)c6ccc(-c7ccc8c(c7)C(=O)N(*)C8=O)cc6C5=O)cc4)cc3)cc2)cc1` (repeat unit) showed a CH4 permeability of 0.0305 Barrer, a CO2 permeability of 1.25 Barrer, an N2 permeability of 0.0392 Barrer and an O2 permeability of 0.256 Barrer.

For the molecule `*Oc1ccc(S(=O)(=O)c2ccc(Oc3ccc(-c4ccc(*)cc4)cc3)cc2)cc1` (repeat unit), the CH4 permeability stood at 0.255 Barrer, the CO2 permeability is 5.6 Barrer, the N2 permeability is 0.236 Barrer and the O2 permeability was 1.3 Barrer.

Consider `*c1cccc(C(c2cccc(N3C(=O)c4ccc(C(=O)c5ccc6c(c5)C(=O)N(*)C6=O)cc4C3=O)c2)(C(F)(F)F)C(F)(F)F)c1` (repeat unit), for which the CH4 permeability was found to be 0.014 Barrer and the CO2 permeability is 1.05 Barrer.

The molecule `*Oc1ccc(Oc2ccc(C(=O)c3ccc(*)cc3)cc2)c(-c2cccc(C(F)(F)F)c2)c1` (repeat unit) yielded a CH4 permeability of 0.041 Barrer, a CO2 permeability of 1.5 Barrer, an H2 permeability of 5.1 Barrer and an N2 permeability of 0.051 Barrer. The same molecule had an O2 permeability of 0.38 Barrer.

Turning to `*CC(*)c1ccc(OC(C)=O)cc1` (repeat unit), the CH4 permeability was 0.99 Barrer, the CO2 permeability came out at 16.3 Barrer, the N2 permeability came out at 0.64 Barrer and the O2 permeability was found to be 3.1 Barrer.

As to `*C(=C(*)c1ccc2c(c1)C(C)(C)CC2(C)C)c1cccc(F)c1` (repeat unit), the CH4 permeability amounted to 27800 Barrer, the CO2 permeability was 35200 Barrer, the H2 permeability is 27000 Barrer and the N2 permeability came to 12000 Barrer. The O2 permeability is 14300 Barrer.

The molecule `*Nc1c(C)cc(C(C)(C)c2cc(C)c(NC(=O)c3ccc(Oc4cc(C(C)(C)C)c(Oc5ccc(C(*)=O)cc5)cc4C(C)(C)C)cc3)c(C)c2)cc1C` (repeat unit) yielded a CH4 permeability of 2.24 Barrer, a CO2 permeability of 43 Barrer, an N2 permeability of 1.73 Barrer and an O2 permeability of 9.38 Barrer.

As for `*c1cccc(S(=O)(=O)c2cccc(N3C(=O)c4ccc(C(c5ccc6c(c5)C(=O)N(*)C6=O)(C(F)(F)F)C(F)(F)F)cc4C3=O)c2)c1` (repeat unit), the CH4 permeability was 0.0578 Barrer, the CO2 permeability stood at 2.34 Barrer, the N2 permeability was found to be 0.095 Barrer and the O2 permeability came to 0.73 Barrer.

As for `*C(=C(*)c1ccc2c(c1)C(C)(C)CC2(C)C)c1ccc(C)cc1` (repeat unit), the CH4 permeability amounted to 10100 Barrer, the CO2 permeability worked out at 16900 Barrer, the H2 permeability came out at 10800 Barrer and the N2 permeability is 4100 Barrer. Also, the O2 permeability turned out to be 5700 Barrer.

Molecule `*Oc1ccc(C(C)(c2ccccc2)c2ccc(Oc3ccc(S(=O)(=O)c4ccc(*)cc4)cc3)cc2)cc1` (repeat unit) registered a CH4 permeability of 0.32 Barrer, a CO2 permeability of 8.12 Barrer, an N2 permeability of 0.278 Barrer and an O2 permeability of 1.56 Barrer.

The molecule `*Oc1ccc2c(c1)C1(CC2(C)C)CC(C)(C)c2ccc(Oc3ccc4c(c3)C(=O)N(c3cccc(N5C(=O)c6ccc(*)cc6C5=O)c3)C4=O)cc21` (repeat unit) had a CH4 permeability of 0.155 Barrer, a CO2 permeability of 4.5 Barrer, an N2 permeability of 0.203 Barrer and an O2 permeability of 1.4 Barrer.

`*CC1CC(*)OCO1` (repeat unit): the H2 permeability was 0.93 Barrer, the N2 permeability worked out at 0.018 Barrer and the O2 permeability was 0.024 Barrer.

For the molecule `*Oc1c(Br)cc(C(C)(C)c2cc(Br)c(OC(=O)c3cccc(C(*)=O)c3)c(Br)c2)cc1Br` (repeat unit), the CH4 permeability was determined as 0.142 Barrer, the CO2 permeability came out at 4.93 Barrer, the H2 permeability was determined as 18.1 Barrer and the N2 permeability came out at 0.179 Barrer. The same molecule had an O2 permeability of 1.29 Barrer.

`*NC(=O)c1ccc(C(c2ccc(C(=O)Nc3c(C)cc4c(c3C)C3c5ccccc5C4c4cc(C)c(*)c(C)c43)cc2)(C(F)(F)F)C(F)(F)F)cc1` (repeat unit) had a CO2 permeability of 121 Barrer, an H2 permeability of 212 Barrer, an N2 permeability of 5.8 Barrer and an O2 permeability of 27.5 Barrer.

`*c1c(C)cc(C)c(N2C(=O)c3ccc(C(=O)c4ccc5c(c4)C(=O)N(*)C5=O)cc3C2=O)c1C` (repeat unit) returned an H2 permeability of 46.4 Barrer, an N2 permeability of 1 Barrer and an O2 permeability of 5 Barrer.

In turn, `*c1ccc(Sc2ccc(Sc3ccc(Sc4ccc(Sc5ccc(N6C(=O)c7ccc(C(c8ccc9c(c8)C(=O)N(*)C9=O)(C(F)(F)F)C(F)(F)F)cc7C6=O)cc5)cc4)cc3)cc2)cc1` (repeat unit) returned a CH4 permeability of 0.26 Barrer, a CO2 permeability of 6.62 Barrer, an N2 permeability of 0.29 Barrer and an O2 permeability of 1.46 Barrer.

`*c1ccc(C(C)(C)c2ccc(N3C(=O)c4ccc(C(c5ccc6c(c5)C(=O)N(*)C6=O)(C(F)(F)F)C(F)(F)F)cc4C3=O)cc2)cc1` (repeat unit) displayed a CH4 permeability of 0.698 Barrer, a CO2 permeability of 30 Barrer, an N2 permeability of 1.34 Barrer and an O2 permeability of 7.5 Barrer.

In turn, `*Oc1ccc(C(C)(C)c2ccc(Oc3ccc4c(c3)C(=O)N(c3cccc(N5C(=O)c6ccc(*)cc6C5=O)c3)C4=O)cc2)cc1` (repeat unit) showed a CH4 permeability of 0.0356 Barrer, a CO2 permeability of 1.3 Barrer, an N2 permeability of 0.0526 Barrer and an O2 permeability of 0.4 Barrer.

Molecule `*Nc1ccc(S(=O)(=O)c2ccc(NC(=O)c3cccc(C(*)=O)c3)cc2)cc1` (repeat unit) displayed a CH4 permeability of 0.014 Barrer, a CO2 permeability of 0.78 Barrer, an H2 permeability of 4.3 Barrer and an N2 permeability of 0.031 Barrer. Moreover, the O2 permeability is 0.19 Barrer.

Turning to `*c1ccc(Oc2ccc(C(c3ccc(Oc4ccc(-n5c(=O)c6cc7c(=O)n(*)c(=O)c7cc6c5=O)cc4)cc3)(C(F)(F)F)C(F)(F)F)cc2)cc1` (repeat unit), the CH4 permeability amounted to 0.499 Barrer, the CO2 permeability came to 14.7 Barrer, the H2 permeability is 29.1 Barrer and the N2 permeability was 0.8 Barrer. This molecule came in with an O2 permeability of 3.94 Barrer.

In the case of `*Oc1ccc(C(C)(C)c2ccc(Oc3ccc(C(=O)c4ccc(*)cc4)cc3)cc2)cc1` (repeat unit), the CH4 permeability came to 0.18 Barrer, the CO2 permeability worked out at 3.5 Barrer, the H2 permeability was found to be 11 Barrer and the N2 permeability was found to be 0.16 Barrer. Moreover, the O2 permeability worked out at 1 Barrer.

Take `*CCOC(=O)c1ccc(C(=O)O*)cc1` (repeat unit): the CH4 permeability is 3 Barrer, the CO2 permeability was determined as 0.173 Barrer, the N2 permeability is 0.013 Barrer and the O2 permeability came to 0.045 Barrer.

Consider `*C(=C(*)c1ccc(C(C)(C)C)cc1)c1ccc(O[Si](C)(C)C(C)(C)C)cc1` (repeat unit), for which the CH4 permeability was determined as 540 Barrer, the CO2 permeability is 2300 Barrer, the H2 permeability worked out at 1000 Barrer and the N2 permeability is 210 Barrer. The same molecule yielded an O2 permeability of 470 Barrer.

Molecule `*Oc1ccc(C(C)(C)c2ccc(Oc3ccc(S(=O)(=O)c4ccc(*)cc4)cc3)c(C)c2)cc1C` (repeat unit) showed a CH4 permeability of 0.07 Barrer, a CO2 permeability of 2.1 Barrer, an H2 permeability of 11 Barrer and an N2 permeability of 0.091 Barrer. The molecule also came in with an O2 permeability of 0.64 Barrer.
